According to article PMC3923314 (Biomacromolecules, 2013):

How the values were obtained:
normal rat striatum = test: Convection-enhanced delivery; type: in vivo; conditions: CED, 20 μl, DOX 0.2 mg/ml, Sprague Dawley rats, a week after infusion
[1] = after injection of free DOX; cited from earlier work

SMILES: COc1cccc2c1C(=O)c1c(O)c3c(c(O)c1C2=O)C[C@@](O)(C(=O)CO)C[C@@H]3O[C@H]1C[C@H](N)[C@H](O)[C@H](C)O1 [free DOX, doxorubicin]
- toxicity to brain tissue (H&E staining) (normal rat striatum): significant tissue damage
- clearance time from blood circulation [1]: tens of minutes
